Data reported in paper PMC11124362, “Metabolism, Disposition, Excretion, and Potential Transporter Inhibition of 7–16, an Improving 5-HT2A Receptor Antagonist and Inverse Agonist for Parkinson’s Disease” (Molecules, 2024).

Legend:
[1] = Metabolite identification in human liver microsomes; format: in vitro ADME; details: 7–16 10 µM, liver microsomes 1 mg/mL, NADPH, 37 °C, 60 min
Method: (§1) In accordance with our previous methods, 7–16 (10 µM) was incubated with mouse, rat, dog, monkey, and human liver microsome proteins (1 mg/mL) in 100 mM sodium phosphate buffer (pH 7.4) containing 10 mM magnesium chloride and 2 mM NADPH at 37 °C for 60 min. All samples were prepared in duplicates. The reactions were terminated by adding three times the volume of ice-cold acetonitrile (600 µL) and stored at −20 °C until analysis. Control samples without NADPH and 0-time point samples were included. As a positive control, testosterone (10 µM), which was metabolized to produce the hydroxylation metabolite, was used as a substrate to confirm the activity of the incubation system.
(§2) After pre-treatments, the samples were analyzed by an Acquity UPLC system coupled with a diode array detector (Waters Corporation, Milford, MA, USA) and Q Exactive HRMS (Thermo Electron Corporation, Waltham, MA, USA) (UPLC–UV-Q Exactive HRMS). Samples were separated on an Agilent XDB C18 column (150 × 2.1 mm i.d. 3.5 μm, Agilent Corporation, Santa Clara, CA, USA) at 40 °C by gradient elution with water and acetonitrile containing 0.1% formic acid. The flow rate was 0.40 mL/min. The ultraviolet (UV) detection wavelength was 286 nm. Q Exactive HRMS were operated at positive ion mode (3.5 kV) using a heating electrospray ionization source. Mass calibration was required to be performed before conducting experiments so as to achieve the best mass accuracy and mass calibration should be performed every five days. The metabolites were detected by full MS/dd-MS^2 analysis from m/z 100 to m/z 1000. The resolution of the first-class scan and second-class scan was 70,000 and 17,500, respectively. Thermo Compound Discover software was used to identify expected and unknown metabolites, and we finally proposed the 7–16 metabolic pathways based on the deduced metabolites and relevant drug biotransformation knowledge.

[2] = Metabolite identification in mouse liver microsomes; format: in vitro ADME; details: 7–16 10 µM, liver microsomes 1 mg/mL, NADPH, 37 °C, 60 min
Method: as §1, §2

[3] = Metabolite identification in rat liver microsomes; format: in vitro ADME; details: 7–16 10 µM, liver microsomes 1 mg/mL, NADPH, 37 °C, 60 min
Method: as §1, §2

[4] = Metabolite identification in dog liver microsomes; format: in vitro ADME; details: 7–16 10 µM, liver microsomes 1 mg/mL, NADPH, 37 °C, 60 min
Method: as §1, §2

[5] = Metabolite identification in monkey liver microsomes; format: in vitro ADME; details: 7–16 10 µM, liver microsomes 1 mg/mL, NADPH, 37 °C, 60 min
Method: as §1, §2

[6] = Metabolite identification in rat plasma after oral [14C]7–16; format: in vivo, Sprague-Dawley rats; details: single oral dose [14C]7–16 3 mg/100 µCi/kg, pooled plasma 0.25-24 h; for TRA% Plasma, female: female rats; for TRA% Plasma, male: male rats
Method: The rats received a single oral dose of [^14C]7–16 at 3 mg/100 µCi/kg (3 females and 3 males for each time point). At 0.25, 1, 6, and 24 h after administration, about 0.3 mL of blood was collected into a collection vessel containing K2-EDTA anticoagulant by cardiac puncture, and the plasma samples were acquired after centrifugation at 8000 rpm for 10 min at 4 °C. All samples were stored at −20 °C until analysis. The rat plasma samples at each time point were mixed in accordance with the area under the concentration curve contribution at corresponding time intervals. After the pooled plasma samples were pre-treated, the radio-profiles of plasma samples were detected using Shimadzu LC coupled with a radioactivity monitor (LC-RAM, Scintillation and Luminescence Counter Technology, Perkin Elmer Corporation, Waltham, MA, USA), and the metabolites were identified by UPLC-QE HRMS (Thermo Electron Corporation, Waltham, MA, USA). The percentage of each metabolite based on the total radiation intensity (TRA%) in plasma samples was calculated. The structures of metabolites were identified by the same method used for metabolite identification in the liver microsomes of different species.

[7] = Excretion and metabolite identification in urine and feces of intact rats; format: in vivo, Sprague-Dawley rats; details: for Dose% Feces, female / Dose% Urine, female: female rats; for Dose% Feces, female / Dose% Urine, female / Dose% Feces, male / Dose% Urine, male: single oral dose [14C]7–16 3 mg/100 µCi/kg; for Dose% Feces, male / Dose% Urine, male: male rats
Method: (§3) In the urine and feces excretion experiment, six rats (3 females and 3 males) were administered a single oral dose of [^14C]7–16 at 3 mg/100 µCi/kg. Urine, feces and cage washing/cleaning solution samples were collected from 0 to 168 h following drug administration at the following time intervals: 0–8, 8–24 h (0–24 h for feces), 24–48, 48–72, 72–96, 96–120, 120–144, and 144–168 h. In the biliary excretion experiment, 8 rats using a bile duct cannula (BDC) (4 females and 4 males) were administered a single oral dose of [^14C]7–16 at 3 mg/100 µCi/kg. Bile, urine, feces, and cage washing solution were collected from before and 0–72 h after oral administration at the following time intervals: 0–4, 4–8 (urine 0–8), 8–24 (feces 0–24), 24–48, and 48–72 h. All samples were collected and refrigerated at −20 °C until determination of the radioactive concentrations by liquid scintillation counter (Perkin Elmer Corporation, Waltham, MA, USA). Urine, feces, and bile samples at each time period were mixed by equal percentages of either volume or weight. After the mixed samples were treated, the radio-profiles and metabolite identification in the bile, urine, and feces samples were carried out by LC-RAM and UPLC-Q Exactive HRMS, and the TRA% of each metabolite in plasma and the percentage of dose (dose%) of each compound in urine, feces, and bile samples were calculated.

[8] = Excretion and metabolite identification in bile duct cannulated (BDC) rats; format: in vivo, Sprague-Dawley rats; details: single oral dose [14C]7–16 3 mg/100 µCi/kg; for Dose% Bile, female: female BDC rats; for Dose% Bile, male: male BDC rats
Method: as §3

| Relative Abundance, UV Area% Human [1] [%] | Relative Abundance, UV Area% Mouse [2] [%] | Relative Abundance, UV Area% Rat [3] [%] | Relative Abundance, UV Area% Dog [4] [%] | Relative Abundance, UV Area% Monkey [5] [%] | TRA% Plasma, female [6] [%] | TRA% Plasma, male [6] [%] | Dose% Feces, female [7] [%] | Dose% Urine, female [7] [%] | Dose% Feces, male [7] [%] | Dose% Urine, male [7] [%] | Dose% Bile, female [8] [%] | Dose% Bile, male [8] [%] | recovery of radioactivity within the first 24 h, percent of dose ([7]; intact rats, first 24 h post-administration) [%] | SMILES |
| --- | --- | --- | --- | --- | --- | --- | --- | --- | --- | --- | --- | --- | --- | --- |
| 0.60 | 0.61 | 1.10 | 1.73 | 2.52 | 1.11 | 2.50 | 4.97 | 4.34 | 5.42 | 5.75 | 0.41 | 0.83 |  | CN1CCC(N(Cc2ccc(F)cn2)C(=O)NCc2ccc(O)cc2)CC1 [Compound M372] |
| 0.78 | 0.39 | 1.29 | 0.47 | 1.73 | 1.40 | 3.70 | 21.1 | 2.66 | 24.2 | 5.77 | 2.71 | 3.83 |  | O=C(NCc1ccc(OCC(F)(F)F)cc1)N(Cc1ccc(F)cn1)C1CCNCC1 [Compound M440] |
|  |  |  |  |  | 81.9 | 57.3 | 16.8 | 23.6 | 5.29 | 9.79 | 0.76 | 0.53 | 76.8 | CN1CCC(N(Cc2ccc(F)cn2)C(=O)N[14CH2]c2ccc(OCC(F)(F)F)cc2)CC1 [[^14C]7–16] |
